From ChEMBL document CHEMBL1133240, “Michael adducts of ascorbic acid as inhibitors of protein phosphatase 2A and inducers of apoptosis” (Bioorg Med Chem Lett, 2000)

Columns and labels:
HIT [1] = test: Inhibitory concentration against casein dephosphorylation (casein is a substrate of PP-2A) by a HIT cell extract; type: functional, cell-free; details: Homo sapiens
HIT [2] = test: Compound was evaluated for inhibitory effect against casein dephosphorylation (casein is a substrate of PP-2A) by a HIT cell extract at 1000 uM; Some inhibition; type: functional, cell-based; details: Homo sapiens
[3] = Compound was evaluated for inhibitory effect against casein dephosphorylation (casein is a substrate of PP-2A) by a HIT cell extract relative to cantharidic acid (100 uM); type: functional, cell-based, Homo sapiens
[4] = Lethal dose was evaluated in parental HIT cells; type: toxicity, cell-based; details: read-out: LC50 (the source's name)
[5] = Lethal dose was evaluated in HIT 100R cells; type: toxicity, cell-based; details: human, read-out: LC50 (the source's name)
[6] = Compound was evaluated for inhibitory effect against casein dephosphorylation (casein is a substrate of PP-2A) by a HIT cell extract at 100 uM; type: functional; details: Homo sapiens
[7] = Compound was evaluated for inhibitory effect against casein dephosphorylation (casein is a substrate of PP-2A) by a HIT cell extract with Okadaic acid (225 nM) or Cantharidic acid (100 uM); type: functional, cell-based, Homo sapiens

C=C1[C@@H](O)[C@@H]2O[C@]3(CC[C@H](/C=C/[C@@H](C)[C@@H]4CC(C)=C[C@@]5(O[C@H](C[C@@](C)(O)C(=O)O)CC[C@H]5O)O4)O3)CC[C@H]2O[C@@H]1[C@@H](O)C[C@H](C)[C@H]1O[C@@]2(CCCCO2)CC[C@H]1C
Concentration (HIT [1]): 225 nM

CCCCCCCCCCCCCCCC(=O)OC[C@@H](O)[C@H]1OC(=O)[C@]2(CCC(OC(C)C)O2)C1=O (some centres undefined)
inhibition (HIT [2]): Some inhibition

O=C1O[C@@H]2[C@@H](O)CO[C@]2(O)[C@@]1(O)C(C[N+](=O)[O-])c1ccc(Cl)cc1 (some centres undefined)
IC50 [3]: 70 µM
CC50 [4]: 5.6 µM
CC50 [5]: 7.9 µM

CCCCCCCCCCCCCCCC(=O)OC[C@@H](O)[C@H]1OC(=O)[C@]2(O)CCC(O)O[C@]12OC (some centres undefined)
CC50 [4]: 100 µM
inhibition at 100 µM [6]: 40%
CC50 [5]: 126 µM
IC50 [7]: 175 µM
